Laboratory results as given in patent publication US10023557B2 (LifeSci Pharmaceuticals, Inc., priority 2015, dated 2018).

Experiments:
[1] = target: cellular kallikrein activity (Homo sapiens (Human), UniProt P03952); assay: In vitro cellular assay (contact assay): kallikrein activity in ellagic acid-activated human plasma, Z-FR-2-AMC substrate; type: biochemical; settings: human plasma activated with ellagic acid, 37° C.
Method: The ability of the compounds disclosed herein to inhibit cellular kallikrein activity was quantified and the respective EC50 value was determined.
All dilutions were prepared in an assay buffer comprising 50 mM Tris-HCl pH 7.2, 150 mM NaCl, and 0.01% Triton X-100.
The ten solutions of the test compounds, prepared by serial dilution, were further diluted 50-fold in the assay buffer.
Human plasma is thawed on ice and centrifuged for 15 min at 4° C. to remove platelets. A 1 mM stock solution of ellagic acid is diluted to 8 μM and mixed with human plasma, after removing platelets, at a ratio of 1:0.8.
A 22.5 μL volume of the final mixture of human plasma and ellagic acid was added to a 96-well microwell plate and the plate was incubated for 15 min at 37° C.
The CINH inhibitor at various concentrations, prepared by serial dilutions as described above, were added to the inhibitor control wells. […] Each CINH concentration is tested in duplicates.
The test compounds at various concentrations, also prepared by serial dilutions as described above, are added to the test wells. […] Each test compound concentration was tested in duplicates.
In addition to the inhibitor control and test wells, the 96 well assay plate includes positive control wells which contained the mixture of human plasma and ellagic acid without C1NH inhibitor or test compounds, and background wells which contained neither the mixture of human plasma and ellagic acid nor the test compounds. The total volume of liquid in positive control and background wells was brought up to 35 μL, using the assay buffer.
The assay plate containing C1NH inhibitors and test compounds mixed with human plasma and ellagic acid and appropriate controls was incubated at 37° C. for 5 min. […] The reagents were mixed well by shaking the plate gently for 30 sec.
The enzyme reaction was quantified by immediate kinetic reading of the assay plate using excitation/emission wavelengths of 330 nm/440 nm respectively. Fluorescence intensity was recorded for 60 min, using a time interval of 43 sec.
The inhibition activity of the test compounds were evaluated using the EC50 values, calculated according to the dose-response curve of the test compounds, fitted using the “log(inhibitor)−response (variable slope)” equation in GraphPadPrism software (GraphPad Software, Inc.).
The percentage inhibition was calculated using the following equation:
[formula] where, Mean (BG) is the average value of the fluorescence intensity of the background wells and Mean (PC) is the average value of the fluorescence intensity of the positive control wells.
Table 4 provides the EC50 values of various compounds disclosed herein.

human plasma kallikrein = human plasma kallikrein (Homo sapiens (Human), UniProt P03952); assay: In vitro enzyme inhibition of human plasma kallikrein (PFR-AMC cleavage); type: biochemical; settings: Pro-Phe-Arg-AMC substrate, 37° C., read-out: hPK IC50
Chain of human plasma kallikrein (P03952 391-638): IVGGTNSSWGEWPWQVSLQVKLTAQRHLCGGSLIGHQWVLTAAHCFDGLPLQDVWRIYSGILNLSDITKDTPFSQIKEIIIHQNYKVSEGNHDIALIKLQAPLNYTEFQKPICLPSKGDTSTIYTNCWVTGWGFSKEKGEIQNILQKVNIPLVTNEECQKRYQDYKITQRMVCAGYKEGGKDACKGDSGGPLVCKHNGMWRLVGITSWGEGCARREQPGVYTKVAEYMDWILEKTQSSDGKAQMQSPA
Chain of human plasma kallikrein (P03952 20-390 partner): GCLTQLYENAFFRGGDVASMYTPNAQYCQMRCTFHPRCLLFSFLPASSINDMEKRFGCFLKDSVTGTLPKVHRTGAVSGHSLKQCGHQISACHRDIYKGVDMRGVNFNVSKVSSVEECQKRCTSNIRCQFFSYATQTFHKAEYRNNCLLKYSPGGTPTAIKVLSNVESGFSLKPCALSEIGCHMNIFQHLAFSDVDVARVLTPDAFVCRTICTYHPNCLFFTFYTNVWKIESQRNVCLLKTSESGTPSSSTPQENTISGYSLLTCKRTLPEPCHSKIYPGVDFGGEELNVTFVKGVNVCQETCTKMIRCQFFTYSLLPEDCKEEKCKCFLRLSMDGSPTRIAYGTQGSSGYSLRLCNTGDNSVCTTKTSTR
Outline: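 Human plasma kallikrein and compound, diluted in 50 mM Tris-HCl pH 7.5, 150 mM NaCl, 0.01% Triton X-100, preincubated 5 min at 37 °C before PFR-AMC was added.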

Chain of cellular kallikrein activity (P03952 391-638): as the sequence (P03952 391-638) above
Chain of cellular kallikrein activity (P03952 20-390 partner): as the sequence (P03952 20-390 partner) above

Row | EC50 [1] [nM] | IC50 (human plasma kallikrein) [nM] | SMILES
1 | < 100 | < 100 | Cc1cnc2c(S(N)(=O)=O)cc(Cc3cc(C(=O)NCc4cc5c(Cl)c[nH]c5cc4F)ccn3)cc2c1 [Example 287, N-((3-chloro-6-fluoro-1H-indol-5-yl)methyl)-2-((3-methyl-8-sulfamoylquinolin-6-yl)methyl)isonicotinamide]
2 | < 100 | < 100 | Cc1cc(N)nc(C)c1CNC(=O)c1cc(Cc2ccc3ncc(Cl)cc3c2)nc(C(N)=O)c1 [Example 208, N^4-((6-amino-2,4-dimethylpyridin-3-yl)methyl)-6-((3-chloroquinolin-6-yl)methyl)pyridine-2,4-dicarboxamide]
3 | 100 to 1000 | < 100 | Cc1ccn2cnc(CNC(=O)c3ccnc(Cc4ccc5ncc(Cl)cc5c4)c3)c2c1 [Example 156, 2-((3-chloroquinolin-6-yl)methyl)-N-((7-methylimidazo[1,5-a]pyridin-1-yl)methyl)isonicotinamide]
4 | 100 to 1000 | < 100 | Cc1cc(N)nc(C)c1CNC(=O)c1ccnc(C(N)c2ccc3ncc(Cl)cc3c2)c1 (stereo not drawn) [Example 276, 2-[Amino-(3-chloro-quinolin-6-yl)-methyl]-N-(6-amino-2,4-dimethyl-pyridin-3-ylmethyl)-isonicotinamide]
5 | < 100 | < 100 | Cc1cc(N)nc(C)c1CNC(=O)c1ccnc(Cc2cnc3cc(F)c(Cl)cc3c2)c1 [Example 226, N-((6-amino-2,4-dimethylpyridin-3-yl)methyl)-2-((6-chloro-7-fluoroquinolin-3-yl)methyl)isonicotinamide]
6 | 100 to 1000 | < 100 | O=C(NCc1n[nH]c2ccc(Cl)cc12)c1ccnc(Cc2ccc3ncc(C4CC4)cc3c2)c1 [Example 249, N-((5-chloro-1H-indazol-3-yl)methyl)-2-((3-cyclopropylquinolin-6-yl)methyl)isonicotinamide]
7 | < 100 | < 100 | Cc1cc2c(N)nccc2cc1CNC(=O)c1ccnc(Cc2ccc3ncc(C(F)(F)F)cc3c2)c1 [Example 183, N-((1-amino-7-methylisoquinolin-6-yl)methyl)-2-((3-(trifluoromethyl)quinolin-6-yl)methyl)isonicotinamide]
8 | < 100 | < 100 | Cc1cc(N)nc(C)c1CNC(=O)c1cc(CO)nc(Cc2ccc3ncc(Cl)cc3c2)c1 [Example 212, N-((6-amino-2,4-dimethylpyridin-3-yl)methyl)-2-((3-chloroquinolin-6-yl)methyl)-6-(hydroxymethyl)isonicotinamide]
9 | 100 to 1000 | < 100 | Cc1cc(N)nc(C)c1CNC(=O)c1ccnc(Cc2cc(-c3nnn[nH]3)c3ncc(Cl)cc3c2)c1 [Example 272, N-((6-amino-2,4-dimethylpyridin-3-yl)methyl)-2-((3-chloro-8-(1H-tetrazol-5-yl)quinolin-6-yl)methyl)isonicotinamide]
10 | < 100 | < 100 | Cc1cc(N)nc(C)c1CNC(=O)c1cc(Cc2ccc3ncc(Cl)cc3c2)nc(C(C)(C)O)c1 [Example 210, N-((6-amino-2,4-dimethylpyridin-3-yl)methyl)-2-((3-chloroquinolin-6-yl)methyl)-6-(2-hydroxypropan-2-yl)isonicotinamide]
11 | 100 to 1000 | < 100 | Cc1cc(N)nc(C)c1CNC(=O)c1ccnc(Cc2cc3cc(C(F)(F)F)cnc3[nH]2)c1 [Example 215, N-((6-amino-2,4-dimethylpyridin-3-yl)methyl)-2-((5-(trifluoromethyl)-1H-pyrrolo[2,3-b]pyridin-2-yl)methyl)isonicotinamide]
12 | < 100 | < 100 | Cc1cc(N)nc(C)c1CNC(=O)c1ccnc(Cc2cc(N)c3ncc(Cl)cc3c2)c1 [Example 217, N-((6-amino-2,4-dimethylpyridin-3-yl)methyl)-2-((8-amino-3-chloroquinolin-6-yl)methyl)isonicotinamide]
13 | < 100 | < 100 | CCc1cnc2ccc(Cc3cc(C(=O)NCc4ccc5c(N)nccc5c4)ccn3)cc2c1 [Example 283, N-((1-aminoisoquinolin-6-yl)methyl)-2-((3-ethylquinolin-6-yl)methyl)isonicotinamide]
14 | 100 to 1000 | – | Cc1cc(N)nc(C)c1CNC(=O)c1cc(Cc2ccc3ncc(Cl)cc3c2)nc(C(=O)O)c1 [Example 209, 4-((6-amino-2,4-dimethylpyridin-3-yl)methylcarbamoyl)-6-((3-chloroquinolin-6-yl)methyl)picolinic acid]
15 | 100 to 1000 | < 100 | Cc1nc2c(c(C)c1CNC(=O)c1ccnc(Cc3ccc4ncc(C(F)(F)F)cc4c3)c1)CCN2 [Example 176, N-((4,6-dimethyl-2,3-dihydro-1H-pyrrolo[2,3-b]pyridin-5-yl)methyl)-2-((3-(trifluoromethyl)quinolin-6-yl)methyl)isonicotinamide]
16 | 100 to 1000 | < 100 | O=C(NCc1ccc2[nH]cc(Cl)c2c1F)c1ccnc(Cc2ccc3ncc(C(F)(F)F)cc3c2)c1 [Example 234, N-((3-chloro-4-fluoro-1H-indol-5-yl)methyl)-2-((3-(trifluoromethyl)quinolin-6-yl)methyl)isonicotinamide]
17 | < 100 | – | COC(=O)c1cc(Cc2cc(C(=O)NCc3c(C)cc(N)nc3C)ccn2)cc2cc(Cl)cnc12 [Example 92, methyl 6-((4-(((6-amino-2,4-dimethylpyridin-3-yl)methyl)carbamoyl)pyridin-2-yl)methyl)-3-chloroquinoline-8-carboxylate]
18 | 100 to 1000 | – | Cc1cc(N)nc(C)c1CNC(=O)c1ccnc(Cc2ccc3ncc(Cl)cc3c2F)c1 [Example 102, N-((6-amino-2,4-dimethylpyridin-3-yl)methyl)-2-((3-chloro-5-fluoroquinolin-6-yl)methyl)isonicotinamide]
19 | < 100 | – | Cc1cc(N)nc(C)c1CNC(=O)c1ccnc(Cc2cc(C(=O)O)c3ncc(Cl)cc3c2)c1 [Example 93, 6-((4-(((6-amino-2,4-dimethylpyridin-3-yl)methyl)carbamoyl)pyridin-2-yl)methyl)-3-chloroquinoline-8-carboxylic acid]
20 | < 100 | – | Cc1nc(N)ccc1CNC(=O)c1ccnc(Cc2cc(CO)c3ncc(Cl)cc3c2)c1 [Example 97, N-((6-amino-2-methylpyridin-3-yl)methyl)-2-((3-chloro-8-(hydroxymethyl)quinolin-6-yl)methyl)isonicotinamide]
21 | < 100 | – | Cc1nc(N)ccc1CNC(=O)c1ccnc(Cc2cc(Cl)c3ncc(Cl)cc3c2)c1 [Example 101, N-((6-amino-2-methylpyridin-3-yl)methyl)-2-((3,8-dichloroquinolin-6-yl)methyl)isonicotinamide]
22 | < 100 | – | Cc1cc(N)nc(C)c1CNC(=O)c1ccnc(Cc2ccc3c(cc(Cl)c[n+]3[O-])c2)c1 [Example 99, 6-((4-(((6-amino-2,4-dimethylpyridin-3-yl)methyl)carbamoyl)pyridin-2-yl)methyl)-3-chloroquinoline 1-oxide]
23 | – | < 100 | Cc1nc(N)ccc1CNC(=O)c1ccnc(Cc2cnc3cc(F)c(Cl)cc3c2)c1 [Example 227, N-((6-amino-2-methylpyridin-3-yl)methyl)-2-((6-chloro-7-fluoroquinolin-3-yl)methyl)isonicotinamide]
24 | – | 100 to 1000 | O=C(NCc1n[nH]c2ccc(Cl)cc12)c1ccnc(Cc2ccc3ncc(N4CCCC4)cc3c2)c1 [Example 309, N-((5-chloro-1H-indazol-3-yl)methyl)-2-((3-(pyrrolidin-1-yl)quinolin-6-yl)methyl)isonicotinamide]
25 | – | 1000 to 10000 | O=C(NCc1cc2c(Cl)c[nH]c2cc1F)c1ccnc(Cc2ccc3ncc(N4CCOCC4)cc3c2)c1 [Example 292, N-((3-chloro-6-fluoro-1H-indol-5-yl)methyl)-2-((3-morpholinoquinolin-6-yl)methyl)isonicotinamide]
26 | – | 1000 to 10000 | Nc1cnc2ccc(Cc3cc(C(=O)NCc4cnc5[nH]cc(Cl)c5c4)ccn3)cc2c1 [Example 300, 2-((3-aminoquinolin-6-yl)methyl)-N-((3-chloro-1H-pyrrolo[2,3-b]pyridin-5-yl)methyl)isonicotinamide]

Row | SMILES | EC50 [1] [nM] | IC50 (human plasma kallikrein) [nM]
27 | Cc1cc(C(=O)NCc2c(C)cc(N)nc2C)cc(Cc2ccc3ncc(Cl)cc3c2)n1 [Example 104, N-((6-amino-2,4-dimethylpyridin-3-yl)methyl)-2-((3-chloroquinolin-6-yl)methyl)-6-methylisonicotinamide] | < 100 | –
